The values below come from patent publication US4333941A, “Inhibition of enveloped viruses with phenyl ketones” (The Dow Chemical Company, priority 1977, dated 1982).

Data set [1] concerns HSV-1. Nature of the data set: Inactivation of HSV-1, plaque assay on Vero or HeLa cells (Example 1). It counts as cell-based, herpes simplex virus type I. The settings on record: Human alphaherpesvirus 1, 1 h, one hour at 37° C., versus water control, read-out: Concentration Producing 50% Virus Inhibition.
In data set [2] the test system is vaccinia virus. Nature of the data set: microbe, parasite or virus in culture. Format: cell-based. The settings on record: Orthopoxvirus vaccinia, 1 h, read-out: concentration for 50 percent inactivation.
Data set [3] relates to poliovirus. Format: cell-based. The settings on record: poliovirus (picorna viruses).
The subject of data set [4] is influenza. Nature of the data set: Inactivation of influenza virus (Example 2). It counts as cell-based. The settings on record: unidentified influenza virus, 1 h.
The test system of data set [5] is HSV-1. Nature of the data set: Inactivation of HSV-1 (Example 2). Format: cell-based, herpes simplex virus type I. The settings on record: Human alphaherpesvirus 1, 1 h.
Data set [6] relates to rhinovirus. Nature of the data set: Inactivation of rhinovirus (Example 2). Format: cell-based.
The subject of data set [7] is HSV-1, Stohr strain. Nature of the data set: In vivo treatment of HSV-1 skin infection in guinea pigs (Example 5). The settings on record: 2 percent in 5 percent ethanol, topical hourly.
The test system of data set [8] is NDV (Newcastle's disease virus). Nature of the data set: organism not typed. It counts as cell-based. The settings on record: 1 h, read-out: concentration for fifty percent inactivation.
Data set [9] has as its system mice. The settings on record: cited from earlier work.
Data set [10] has as its system HSV-2. Nature of the data set: In vivo treatment of genital cutaneous mucosa infected with HSV-2 (Example 8). The settings on record: all the animals, including placebo and control.
Data set [11] has as its system HSV-1. The settings on record: guinea pig, in vivo.
In data set [12] the test system is SFV (semliki forest virus). Nature of the data set: Inactivation of SFV (Example 2). Format: cell-based. The settings on record: 1 h, one hour exposure, read-out: concentration for fifty percent inactivation.
For data set [13], the system named is VSV (vesicular stomatitis virus). Nature of the data set: microbe, parasite or virus in culture. Format: cell-based. The settings on record: 1 h.
The test system of data set [14] is HSV-2. The settings on record: guinea pig, in vivo.
In data set [15] the test system is HSV-2. Nature of the data set: Inactivation of one strain of HSV-2 (Example 3). The settings on record: Human alphaherpesvirus 2, 1 h, read-out: concentration for ninety nine percent inactivation.
Data set [16] relates to HSV-1. Nature of the data set: Inactivation of two strains of HSV-1 (Example 3). The settings on record: Human alphaherpesvirus 1, 1 h, read-out: concentration for ninety nine percent inactivation.
Setting [17] is: read-out: concentration for fifty percent inactivation.

Counter-ions that a name gives are not always drawn. Like-named read-outs stand apart in the source and are kept apart here.

As for `CCCCOc1ccc(C(=O)CCN2CCOCC2)cc1`, in [1], the IC50 stood at 125 µM.

Regarding `CCCCOc1ccc(C(=O)C(C)C[N+]2(C)CCCCC2)cc1` (stereo not drawn) [1-[2-(4-butoxybenzoyl)-2-methylethyl]-1-methyl-piperidinium iodide], in [1], the IC50 is greater than 750 µM.

As to `CCCCOc1ccc(C(=O)CC[N+]2(C)CCCCC2)cc1` [1-[2-(4-butoxybenzoyl)-ethyl]-1-methyl piperidinium iodide], the IC50 in data set [1] was less than 125 µM.

With `O=C(CCN1CCCCC1)c1ccc(Cl)c(Cl)c1` [3',4'-Dichloro-3-piperidino-propiophenone . HCl], the IC50 in data set [1] is less than 125 µM.

Turning to `O=C(CCN1CCCCC1)c1cccc(Cl)c1` [3'-Chloro-3-piperidino-propiophenone . HCl], the IC50 in data set [1] stood at 125 µM.

Regarding `CC(=O)C(CN1CCCCC1)c1ccccc1` (stereo not drawn) [3-Phenyl-4-piperidino-2-butanone . HCl], in [1], the IC50 is 550 µM.

As for `CCCCOc1ccc(C(=O)CCN(CC)CC)cc1` [4'-Butoxy-3-diethylamino-propiophenone . HCl], the IC50 in [1] was less than 125 µM.

For `CCOc1ccc(C(=O)CCN2CCCCC2)cc1` [4'-Ethoxy-3-piperidino-propiophenone . HCl], the IC50 in [1] stood at 1500 µM.

For the compound `CCCCCCOc1ccc(C(=O)CCN2CCCCC2)cc1` [4'-Hexyloxy-3-piperidino-propiophenone . HCl], the IC50 in data set [1] is less than 125 µM.

Consider `CC(C)COc1ccc(C(=O)CCN2CCCCC2)cc1` [4'-Isobutoxy-3-piperidino-propiophenone . HCl], for which the IC50 in data set [1] was 200 µM.

Turning to `CCCOc1ccc(C(=O)CCN2CCCCC2)cc1` [4'-Propoxy-3-piperidino-propiophenone . HCl], the IC50 in [1] was found to be 400 µM.

As to `CCCCCCCCCCOc1ccc(C(=O)CCN2CCCCC2)cc1` [4'-n-Decyloxy-3-piperidino-propiophenone . HCl], the IC50 in [1] was less than 125 µM.

Turning to `CCCCCCCCOc1ccc(C(=O)CCN2CCCCC2)cc1` [4'-n-Octyloxy-3-piperidino-propiophenone . HCl], the IC50 in data set [1] was less than 125 µM.

As for `COc1ccc(C(=O)CCN2CCCCC2)cc1` [4-Methoxy-3-piperidino propiophenone . HCl], in data set [1], the IC50 was determined as 125 µM.

On to `CCCCOc1ccc(C(=O)CCN2CCCCC2)cc1` [Dyclonine . HCl, 4-n-butoxy-β-(1-piperidyl)-propiophenone hydrochloride], for which the IC50 was 125 µM in [1]; no more than 2000 µM in data set [2]; no more than 1000 µM in data set [4] (setting [17]); no more than 1000 µM in data set [5] (setting [17]); no more than 1000 µM in [8]; no more than 1000 µM in data set [12]. The IC50 in data set [13] (setting [17]) was no more than 1000 µM. Besides, the percent inactivated result in data set [3] and in data set [6] was “less than 50%” in each case. The results for the killing at 500 µM in data set [4] (read-out: inactivation of influenza virus), in [5] (read-out: inactivation of HSV) and in [13] (read-out: inactivation of VSV) were roughly 80%, greater than 90% and greater than 99%, respectively. Also, the “sites with herpes lesions” value in data set [7] (48 hours after inoculation, placebo 88 percent) was 31% of the sites; in [7] (by 72 hours), 7% of the sites. Also, the results for the “acute LD50” value in data set [9] (intraperitoneal injection) and in data set [9] (intravenous) were 52.8 mg/kg and 19.5 mg/kg, respectively. Besides, the hyperkeratosis result in data set [10] was “hyperkeratosis was noted in all the animals”; in data set [14], “mild hyperkeratosis noted in some of the animals”. The “Candida (yeast) infection” value in [11] is on record as “a Candida (yeast) infection developed”. For the same compound, the detrimental adverse reactions entry in data set [14] is given as “No detrimental adverse reactions were observed”. The IC99 in data set [15] and in data set [16] was less than 1000 µM throughout.

In the case of `CCCCOc1cc(C(=O)OCCN(CC)CC)ccc1N` [benoxinate . HCl], in [1], the IC50 was greater than 2000 µM.

For the compound `CCOC(=O)c1ccc(N)cc1` [benzocaine], in data set [1], the IC50 is greater than 2000 µM.

`CCCCOc1cc(C(=O)NCCN(CC)CC)c2ccccc2n1` [dibucaine . HCl]: in [1], the IC50 worked out at 800 µM.

With `CCN(CC)CC(=O)Nc1c(C)cccc1C` [lidocaine . HCl], the IC50 in data set [1] is greater than 2000 µM.

On to `CCOc1ccc(N=C(C)Nc2ccc(OCC)cc2)cc1` [phenacaine . HCl], for which the IC50 in data set [1] was greater than 2000 µM.

With `CCCCOc1ccc(OCCCN2CCOCC2)cc1` [pramoxine . HCl], in data set [1], the IC50 stood at 675 µM.

Regarding `CCN(CC)CCOC(=O)c1ccc(N)cc1` [procaine . HCl], the IC50 in [1] is greater than 2000 µM.

With `CCCOc1ccc(C(=O)OCCN(CC)CC)cc1N` [proparacaine . HCl], the IC50 in [1] is greater than 2000 µM.

In the case of `CCCCNc1ccc(C(=O)OCCN(C)C)cc1` [tetracaine . HCl], the IC50 in data set [1] is greater than 2000 µM.
